Key:
HT-29 = assay: Cytotoxicity against human HT29 cells; format: functional, cell-based
NCI/ADR-RES = assay: Cytotoxicity against human NCI/ADR-RES cells; format: functional, cell-based

## C[C@]12CC[C@H](N(OCc3ccccc3)OC3OC[C@H](O)[C@@H](O)[C@@H]3O)C[C@H]1CC[C@@H]1[C@@H]2CC[C@]2(C)[C@@H](C3=CC(=O)OC3)CC[C@]12O (stereo partly drawn)
HT-29
  IC50: > 1000 nM

## CC(C)ON(OC1OC[C@H](O)[C@@H](O)[C@@H]1O)[C@H]1CC[C@@]2(C)[C@H](CC[C@@H]3[C@@H]2CC[C@]2(C)[C@@H](C4=CC(=O)OC4)CC[C@]32O)C1 (stereo partly drawn)
NCI/ADR-RES
  IC50: 120 nM

## CC(C)ON(OC1OC[C@H](O)[C@H](O)[C@@H]1O)[C@H]1CC[C@@]2(C)[C@H](CC[C@@H]3[C@@H]2CC[C@]2(C)[C@@H](C4=CC(=O)OC4)CC[C@]32O)C1 (stereo partly drawn)
NCI/ADR-RES
  IC50: 110 nM

Source: ChEMBL document CHEMBL1141488, “Modifying the glycosidic linkage in digitoxin analogs provides selective cytotoxins” (Bioorg Med Chem Lett, 2008)
